Experimental data published in ChEMBL document CHEMBL1147193, “New 5-substituted thiazolo[3,2-b][1,2,4]triazol-6-ones: synthesis and anticancer evaluation” (2007).

Columns and labels:
Assay type in all cases: functional
[1] = tested on: COLO 205; test: Growth inhibition of human COLO205 cells after 48 hrs by SRB protein assay; details: COLO 205, 48 h; for TGI: read-out: Log TGI (converted)
[2] = tested on: NCI-H522; test: Growth inhibition of human NCI-H522 cells after 48 hrs by SRB protein assay; details: NCI-H522, 48 h
[3] = Growth inhibition of human MALME 3M cells after 48 hrs by SRB protein assay
[4] = tested on: PC-3; test: Growth inhibition of human PC3 cells after 48 hrs by SRB protein assay; details: PC-3, 48 h; for TGI: read-out: Log TGI (converted)
[5] = tested on: ACHN; test: Growth inhibition of human ACHN cells after 48 hrs by SRB protein assay; details: for TGI: read-out: Log TGI (converted)
[6] = tested on: SK-MEL-2; test: Growth inhibition of human SK-MEL-2 cells after 48 hrs by SRB protein assay; details: SK-MEL-2, 48 h
[7] = tested on: SK-OV-3; test: Growth inhibition of human SK-OV-3 cells after 48 hrs by SRB protein assay; details: SK-OV-3, 48 h
[8] = tested on: SW-620; test: Growth inhibition of human SW620 cells after 48 hrs by SRB protein assay; details: SW-620, 48 h; for TGI: read-out: Log TGI (converted)
[9] = tested on: UACC-62; test: Growth inhibition of human UACC62 cells after 48 hrs by SRB protein assay; details: UACC-62, 48 h; for TGI: read-out: Log TGI (converted)
[10] = tested on: NCI-H460; test: Anticancer activity against human NCI-H460 cells assessed as growth of cells at 100 uM relative to untreated cells
[11] = tested on: KM12; test: Growth inhibition of human KM12 cells after 48 hrs by SRB protein assay; details: KM12, 48 h; for TGI: read-out: Log TGI (converted)
[12] = tested on: 786-0; test: Growth inhibition of human 786-0 cells after 48 hrs by SRB protein assay; details: 786-0, 48 h; for TGI: read-out: Log TGI (converted)
[13] = tested on: OVCAR-4; test: Growth inhibition of human OVCAR4 cells after 48 hrs by SRB protein assay; details: OVCAR-4, 48 h
[14] = tested on: HCT-15; test: Growth inhibition of human HCT15 cells after 48 hrs by SRB protein assay; details: HCT-15, 48 h; for TGI: read-out: Log TGI (converted)
[15] = tested on: IGROV-1; test: Growth inhibition of human IGROV1 cells after 48 hrs by SRB protein assay; details: IGROV-1, 48 h
[16] = tested on: OVCAR-5; test: Growth inhibition of human OVCAR5 cells after 48 hrs by SRB protein assay; details: OVCAR-5, 48 h; for TGI: read-out: Log TGI (converted)
[17] = tested on: HOP-62; test: Growth inhibition of human HOP62 cells after 48 hrs by SRB protein assay; details: HOP-62, 48 h; for TGI: read-out: Log TGI (converted)
[18] = tested on: UACC-257; test: Growth inhibition of human UACC257 cells after 48 hrs by SRB protein assay; details: UACC-257, 48 h; for TGI: read-out: Log TGI (converted)
[19] = tested on: U-251; test: Growth inhibition of human U251 cells after 48 hrs by SRB protein assay; details: U-251, 48 h; for TGI: read-out: Log TGI (converted)
[20] = tested on: MOLT-4; test: Growth inhibition of human MOLT4 cells after 48 hrs by SRB protein assay; details: MOLT-4, 48 h; for TGI: read-out: Log TGI (converted)
[21] = tested on: A549; test: Growth inhibition of human A549/ATCC cells after 48 hrs by SRB protein assay; details: A549, 48 h; for TGI: read-out: Log TGI (converted)
[22] = tested on: RXF 393; test: Growth inhibition of human RXF393 cells after 48 hrs by SRB protein assay; details: RXF 393, 48 h; for TGI: read-out: Log TGI (converted)
[23] = tested on: M14; test: Growth inhibition of human M14 cells after 48 hrs by SRB protein assay; details: M14, 48 h; for TGI: read-out: Log TGI (converted)
[24] = tested on: TK-10; test: Growth inhibition of human TK10 cells after 48 hrs by SRB protein assay; details: TK-10, 48 h; for TGI: read-out: Log TGI (converted)
[25] = tested on: NCI-H460; test: Growth inhibition of human NCI-H460 cells after 48 hrs by SRB protein assay; details: NCI-H460, 48 h; for TGI: read-out: Log TGI (converted)
[26] = tested on: NCI-H322M; test: Growth inhibition of human NCI-H322M cells after 48 hrs by SRB protein assay; details: for TGI: read-out: Log TGI (converted)
[27] = tested on: CCRF-CEM; test: Growth inhibition of human CCRF-CEM cells after 48 hrs by SRB protein assay; details: for TGI: read-out: Log TGI (converted)
[28] = tested on: NCI/ADR-RES; test: Growth inhibition of human NCI/ADR-RES cells after 48 hrs by SRB protein assay; details: for TGI: read-out: Log TGI (converted)
[29] = tested on: K562; test: Growth inhibition of human K562 cells after 48 hrs by SRB protein assay; details: K562, 48 h; for TGI: read-out: Log TGI (converted)
[30] = tested on: HCT-116; test: Growth inhibition of human HCT116 cells after 48 hrs by SRB protein assay; details: HCT-116, 48 h; for TGI: read-out: Log TGI (converted)
[31] = tested on: MCF7; test: Growth inhibition of human MCF7 cells after 48 hrs by SRB protein assay; details: MCF7, 48 h; for TGI: read-out: Log TGI (converted)
[32] = tested on: UO-31; test: Growth inhibition of human UO31 cells after 48 hrs by SRB protein assay; details: UO-31, 48 h
[33] = tested on: SK-MEL-28; test: Growth inhibition of human SK-MEL-28 cells after 48 hrs by SRB protein assay; details: SK-MEL-28, 48 h; for TGI: read-out: Log TGI (converted)
[34] = tested on: SK-MEL-5; test: Growth inhibition of human SK-MEL-5 cells after 48 hrs by SRB protein assay; details: SK-MEL-5, 48 h; for TGI: read-out: Log TGI (converted)
[35] = tested on: LOX IMVI; test: Growth inhibition of human LOX IMVI cells after 48 hrs by SRB protein assay; details: for TGI: read-out: Log TGI (converted)
[36] = tested on: MDA-MB-435; test: Growth inhibition of human MDA-MB-435 cells after 48 hrs by SRB protein assay; details: MDA-MB-435, 48 h; for TGI: read-out: Log TGI (converted)
[37] = tested on: SF-268; test: Anticancer activity against human SF268 cells assessed as growth of cells at 100 uM relative to untreated cells
[38] = tested on: HT-29; test: Growth inhibition of human HT29 cells after 48 hrs by SRB protein assay; details: HT-29, 48 h; for TGI: read-out: Log TGI (converted)
[39] = tested on: BT-549; test: Growth inhibition of human BT549 cells after 48 hrs by SRB protein assay; details: BT-549, 48 h
[40] = tested on: HOP-92; test: Growth inhibition of human HOP92 cells after 48 hrs by SRB protein assay; details: HOP-92, 48 h

With `O=c1/c(=C/c2ccc(Cl)cc2)sc2ncnn12` the GI50 [1] was 17 µM, the TGI [1] was 38.9 µM and the GI50 [2] was 5.37 µM. For the same molecule, the TGI ([2]; read-out: Log TGI (converted)) was 18.6 µM, the GI50 [3] was 11.2 µM and the TGI ([3]; read-out: Log TGI (converted)) was 26.9 µM. The GI50 [4] was 11.7 µM, the TGI [4] was 28.8 µM and the GI50 [5] was 14.5 µM. For the same molecule, the TGI [5] was 38.9 µM, the GI50 [6] was 12.6 µM and the TGI ([6]; read-out: Log TGI (converted)) was 28.2 µM. For the same molecule, the GI50 [7] was 29.5 µM, the TGI ([7]; read-out: Log TGI (converted)) was 55 µM and the GI50 [8] was 14.8 µM. For the same molecule, the TGI [8] was 30.9 µM, the GI50 [9] was 14.5 µM and the TGI [9] was 29.5 µM. For the same molecule, the Activity [10] was 3%, the GI50 [11] was 10.5 µM and the TGI [11] was 25.7 µM. It also gave a GI50 [12] of 13.5 µM, a TGI [12] of 28.8 µM and a GI50 [13] of 17.4 µM. It also gave a TGI ([13]; read-out: Log TGI (converted)) of 63.1 µM, a GI50 [14] of 12 µM and a TGI [14] of 34.7 µM. It also gave a GI50 [15] of 10 µM, a TGI ([15]; read-out: Log TGI (converted)) of 24.5 µM and a GI50 [16] of 20 µM. The TGI [16] was 34.7 µM, the GI50 [17] was 15.8 µM and the TGI [17] was 35.5 µM. For the same molecule, the GI50 [18] was 13.5 µM, the TGI [18] was 30.2 µM and the GI50 [19] was 10.5 µM. It also gave a TGI [19] of 23.4 µM, a GI50 [20] of 1.62 µM and a TGI [20] of 8.71 µM. The GI50 [21] was 21.4 µM, the TGI [21] was 83.2 µM and the GI50 [22] was 5.25 µM. For the same molecule, the TGI [22] was 18.2 µM, the GI50 [23] was 15.1 µM and the TGI [23] was 35.5 µM. It also gave a GI50 [24] of 16.6 µM, a TGI [24] of 31.6 µM and a GI50 [25] of 17.4 µM. It also gave a TGI [25] of 44.7 µM, a GI50 [26] of 13.2 µM and a TGI [26] of 26.3 µM. For the same molecule, the GI50 [27] was 0.355 µM, the TGI [27] was 20 µM and the GI50 [28] was 26.3 µM. The TGI [28] was 89.1 µM, the GI50 [29] was 7.59 µM and the TGI [29] was 28.8 µM. For the same molecule, the GI50 [30] was 10.7 µM, the TGI [30] was 25.7 µM and the GI50 [31] was 6.31 µM. It also gave a TGI [31] of 30.9 µM, a GI50 [32] of 12.3 µM and a TGI ([32]; read-out: Log TGI (converted)) of 33.1 µM. The GI50 [33] was 16.6 µM, the TGI [33] was 35.5 µM and the GI50 [34] was 10.7 µM. The TGI [34] was 23.4 µM, the GI50 [35] was 10.7 µM and the TGI [35] was 25.1 µM. For the same molecule, the GI50 [36] was 12.6 µM, the TGI [36] was 26.9 µM and the Activity [37] was 11%. For the same molecule, the GI50 [38] was 15.1 µM and the TGI [38] was 58.9 µM.

In the case of `CCOC(=O)c1ccc(NC(=O)CC2Sc3ncnn3C2=O)cc1` (stereo not drawn), the GI50 [1] is reported as 21.4 µM, the TGI [1] is reported as 40.7 µM and the GI50 [4] is reported as 18.2 µM. The TGI [4] was 40.7 µM, the GI50 [5] was 17.4 µM and the TGI [5] was 31.6 µM. For the same molecule, the GI50 [8] was 38.9 µM, the TGI [8] was > 100 µM and the GI50 [9] was 40.7 µM. The TGI [9] was > 100 µM, the Activity [10] was 0% and the GI50 [11] was > 100 µM. For the same molecule, the TGI [11] was > 100 µM, the GI50 [12] was 15.5 µM and the TGI [12] was 28.8 µM. It also gave a GI50 [14] of 20.9 µM, a TGI [14] of 52.5 µM and a GI50 [16] of 17 µM. For the same molecule, the TGI [16] was 31.6 µM, the GI50 [17] was 21.4 µM and the TGI [17] was 47.9 µM. It also gave a GI50 [39] of 21.9 µM, a TGI ([39]; read-out: Log TGI (converted)) of 43.7 µM and a GI50 [18] of 87.1 µM. The TGI [18] was > 100 µM, the GI50 [19] was > 100 µM and the TGI [19] was > 100 µM. The GI50 [20] was 33.9 µM, the TGI [20] was 66.1 µM and the GI50 [21] was > 100 µM. The TGI [21] was > 100 µM, the GI50 [22] was 21.4 µM and the TGI [22] was 67.6 µM. It also gave a GI50 [23] of 18.6 µM, a TGI [23] of 34.7 µM and a GI50 [24] of 22.9 µM. For the same molecule, the TGI [24] was 55 µM, the GI50 [25] was > 100 µM and the TGI [25] was > 100 µM. The GI50 [26] was > 100 µM, the TGI [26] was > 100 µM and the GI50 [27] was 24.5 µM. The TGI [27] was 77.6 µM, the GI50 [28] was 18.2 µM and the TGI [28] was 36.3 µM. For the same molecule, the GI50 [29] was 95.5 µM, the TGI [29] was > 100 µM and the GI50 [30] was 15.8 µM. For the same molecule, the TGI [30] was 29.5 µM, the GI50 [31] was 38.9 µM and the TGI [31] was > 100 µM. For the same molecule, the GI50 [33] was 91.2 µM, the TGI [33] was > 100 µM and the GI50 [40] was 19.5 µM. For the same molecule, the TGI ([40]; read-out: Log TGI (converted)) was 47.9 µM, the GI50 [34] was > 100 µM and the TGI [34] was > 100 µM. For the same molecule, the GI50 [35] was 18.2 µM, the TGI [35] was 35.5 µM and the GI50 [36] was > 100 µM. The TGI [36] was > 100 µM, the Activity [37] was 8% and the GI50 [38] was 43.7 µM. The TGI [38] was > 100 µM.
